One data set has as its system L1210 leukemia. The experiment in a line: L1210 leukemia survival time in mice (ip implanted). In kind it is in vivo, mice (CD2F1). As to conditions: for %T/C (average survival time treated/control × 100): cures not included. The protocol: (§1) Leukemia L1210 cells were obtained from the Frederick Cancer Research Facility, Division of Cancer Treatment Tumor Repository of the National Cancer Institute, and were maintained by serial passage in tissue culture. Every 8 weeks, tumor cells were injected intraperitoneally into five donor CD2 F1 mice 8- to 10- weeks of age and were allowed to grow for 7 days. The peritoneal fluid was withdrawn and the suspension was centrifuged for 5 min at 1600 g. The supernatant was decanted and 10^5 cells/mL were seeded into 10 mL of RPMI 1640 medium supplemented with 10% fetal bovine serum and 1% L-glutamine, and once again maintained in culture. To assay for antineoplastic activity, 0.1 mL of the cell suspension containing 10^5 L1210 leukemia cells was injected ip into each recipient mouse. Test compounds were administered over a wide range of dosage levels, beginning 24 h after tumor implantation, and continued once daily for 6 consecutive days. All drugs were administered ip as a solution in 100% dimethylsulfoxide (DMSO), in a volume not exceeding 0.025 mL. […] Mice were weighed during the course of the experiments, and the percentage change in body weight from onset to termination of therapy was used as an indication of drug toxicity. Determination of the sensitivity of neoplasms to these agents was based upon the prolongation of survival time afforded by the drug treatments.
(§2) ^a Administered ip once daily for six consecutive days, beginning 24 hours after tumor implantation, with 5-10 mice being used per group. ^b Average percent change in body weight from onset to termination of therapy. ^c % T/C=average survival time of treated/control mice×100; cures (>60-day survivors) are listed separately and are not included in this calculation.

Data set [1] can be described thus: Body weight change / toxicity in L1210-bearing mice. The note with it: L1210-bearing mice. The data set is classed as in vivo, mice (CD2F1). The protocol:
as §1, §2

In a further data set the test system is M109 lung carcinoma. The experiment in a line: M109 lung carcinoma, sc implanted. In kind it is in vivo, BALB/c mice. Here is the method: The M5076 reticulum cell sarcoma was passaged biweekly by sc transfer of tumor fragments into C57BL/6 mice, and the M109 lung carcinoma was similarly passaged in BALB/c mice. The LX-1 human lung carcinoma was passaged sc every two to three weeks in BALB/c-background athymic (nu/nu) mice. For use in these systems, compound III was dissolved in: (a) 100% DMSO and administered by iv injection in a fixed volume of 10 microliters; or (b) DMSO diluted with saline to a final concentration of 10% DMSO and administered iv in a volume of 0.01 milliliter/g of body weight. […] Mitomycin C and cyclophosphamide were dissolved and administered in saline. BCNU and MeCCNU were dissolved in ethanol and diluted 1:9 (v/v) with water prior to administration.
Five mice per group were employed in experiments with the B16F10 melanoma, and 8 mice per group with the M5076 sarcoma, the M109 carcinoma and the LX-1 carcinoma. A minimum of two dose levels per compound were included in each evaluation and drug therapy was initiated 24 h after tumor implantation for the M5076 sarcoma and M109 carcinoma. In the LX-1 experiment, tumor bearing mice were selected and sorted into treatment and control groups on day 6 post-tumor implant such that all tumor weights ranged from 50-100 mg and median tumor weights per group were reasonably similar. Therapeutic results are presented in terms of: (a) increases in lifespan reflected by the relative median survival time (MST) of treated versus control groups (i.e., %T/C values), and by long-term survivors, and (b) primary tumor growth inhibition (i.e., T-C values) determined by calculating the relative median times for treated (T) and control untreated (C) mice to grow tumors of a 0.5 g size for the LX-1 carcinoma or a 1 g size for the murine neoplasms. Tumor weights were interchangeable with tumor size on the basis of 1 mm^3 =1 mg. […] The activity criterion for tumor inhibition was a delay in tumor growth consistent with one log10 cell kill (LCK). The absolute T-C value needed to attain this level of efficacy varied from experiment to experiment and depended upon the tumor volume doubling time of the control mice in each study. Treated mice dying prior to day 10 in the ip M109 experiment, or dying before their tumors achieved 0.5 g for the LX-1 carcinoma or 1 g in size for all other sc tumor models, were considered to have died from drug toxicity. Groups of mice with more than one death due to drug toxicity were not used in the evaluation of antitumor efficacy. Statistical evaluations of data were performed using Gehan's generalized Wilcoxan test (Gehan, Biometrika, 1965, 52, 203-233).
Compound III was also evaluated against the M109 lung carcinoma implanted subcutaneously (sc). In the initial test using this model, a dose of 50 mg/kg per injection of this compound was administered intravenously (iv) in 10% DMSO in saline every fourth day for a total of three injections. […] Mitomycin C, used as a reference drug, produced a maximum %T/C of 103 and a delay in tumor growth of 10 days (data not shown). A subsequent evaluation of compound III was performed using four different doses on a slightly different schedule, i.e., 24, 32, 48 and 64 mg/kg administered every third day for four total injections, and two vehicles, 10% DMSO in saline and 100% DMSO. […] Cyclophosphamide and mitomycin C were included as reference drugs in the last experiment. The former compound produced a maximum %T/C of 143 and a delay in tumor growth of 8.8 days, while mitomycin C produced a maximum %T/C of 134 and a T-C value of 9.3 days (data not shown). As reported earlier, compound X achieved a maximum %T/C of 136 and a maximum T-C value of 14.5 days against this tumor (Shyam, et al., J. Med. Chem., 1993, 36, 3496).

[2] abbreviates: reference drugs in last experiment (experiment b).
Setting [3] is: reference drug in initial test (experiment a).

Molecules are shown by their SMILES.

For the compound `CCOC(=O)C(Cc1ccccc1)NC(=O)N(N(CCCl)S(C)(=O)=O)S(C)(=O)=O` (centres unmarked) [Compound IX, 1,2-Bis(methylsulfonyl)-1-(2-chloroethyl)-2-(1-ethoxycarbonyl-2-phenylethyl)aminocarbonylhydrazine], the “%T/C (average survival time treated/control × 100)” value in the data set with L1210 leukemia (5 mg/kg ip once daily × 6) stood at 147%; in the data set on L1210 leukemia (10 mg/kg ip once daily × 6) it was 165%; in the data set with L1210 leukemia (15 mg/kg ip once daily × 6), 160%; with L1210 leukemia (20 mg/kg ip once daily × 6) it was 174%; in the data set with L1210 leukemia (25 mg/kg ip once daily × 6) it was 177%; in the data set with L1210 leukemia (50 mg/kg ip once daily × 6), 225%. In addition, in the data set with L1210 leukemia (150 mg/kg ip once daily × 6), the “%T/C (average survival time treated/control × 100)” value was 169%. Besides, the “% 60 Day Survivors (cures)” value in the data set with L1210 leukemia (50 mg/kg ip once daily × 6) is reported as 60%; with L1210 leukemia (100 mg/kg ip once daily × 6), 100%; in the data set with L1210 leukemia (150 mg/kg ip once daily × 6) it was 20%. In addition, the “Av. Wt. Change %” value in data set [1] (5 mg/kg ip once daily × 6) is on record as -2.5%; in data set [1] (10 mg/kg ip once daily × 6), -0.5%; in data set [1] (15 mg/kg ip once daily × 6), -1.9%; in data set [1] (20 mg/kg ip once daily × 6), -1.9%; in data set [1] (25 mg/kg ip once daily × 6) it was -0.9%; in data set [1] (50 mg/kg ip once daily × 6), -2.0%. Further, the “Av. Wt. Change %” value in data set [1] (100 mg/kg ip once daily × 6) is reported as -2.0%; in data set [1] (150 mg/kg ip once daily × 6) it was -5.0%.

For `C=CCNC(=O)N(N(CCCl)S(C)(=O)=O)S(C)(=O)=O` [Compound V, 2-Allylaminocarbonyl-1,2-bis(methylsulfonyl)-1-(2-chloroethyl)hydrazine], the entries for the “% 60 Day Survivors (cures)” value with L1210 leukemia (5 mg/kg ip once daily × 6), in the data set with L1210 leukemia (10 mg/kg ip once daily × 6) and in the data set with L1210 leukemia (15 mg/kg ip once daily × 6) were 20%, 40% and 100%, respectively. Besides, the “%T/C (average survival time treated/control × 100)” value in the data set with L1210 leukemia (5 mg/kg ip once daily × 6) is recorded as 184%; in the data set with L1210 leukemia (10 mg/kg ip once daily × 6), 394%. For the same compound, in the data set with L1210 leukemia (qualitative, L1210 leukemia in mice), the “antileukemic activity / therapeutic potential (in words)” value is listed as “highly efficacious against this tumor”. For the same compound, the “Av. Wt. Change %” value in data set [1] (5 mg/kg ip once daily × 6) is on record as -1.6%; in data set [1] (10 mg/kg ip once daily × 6), -2.1%; in data set [1] (15 mg/kg ip once daily × 6), -2.9%.

On to `CS(=O)(=O)N(CCCl)N(C(=O)NCCCCl)S(C)(=O)=O` [Compound VI, 1,2-Bis(methylsulfonyl)-1-(2-chloroethyl)-2-(3-chloropropyl)aminocarbonylhydrazine], for which the “%T/C (average survival time treated/control × 100)” value in the data set with L1210 leukemia (5 mg/kg ip once daily × 6) is recorded as 111%; with L1210 leukemia (10 mg/kg ip once daily × 6) it was 187%; with L1210 leukemia (15 mg/kg ip once daily × 6), 192%. For the same compound, the “% 60 Day Survivors (cures)” value in the data set on L1210 leukemia (15 mg/kg ip once daily × 6) is recorded as 20%. Moreover, the “cure rate (in words)” value in the data set with L1210 leukemia (highest dosage level examined (15 mg/kg × 6)) is “partial cure rate of tumor-bearing mice”. The “Av. Wt. Change %” value is given as -2.8% in data set [1] (5 mg/kg ip once daily × 6), -5.6% in data set [1] (10 mg/kg ip once daily × 6) and -8.8% in data set [1] (15 mg/kg ip once daily × 6).

As to `CCOC(=O)CNC(=O)N(N(CCCl)S(C)(=O)=O)S(C)(=O)=O` [Compound VII, 1,2-Bis(methylsulfonyl)-1-(2-chloroethyl)-2-(ethoxycarbonylmethyl)aminocarbonylhydrazine], the “%T/C (average survival time treated/control × 100)” value with L1210 leukemia (5 mg/kg ip once daily × 6) is 151%; in the data set with L1210 leukemia (10 mg/kg ip once daily × 6) it was 202%; with L1210 leukemia (15 mg/kg ip once daily × 6), 202%; in the data set on L1210 leukemia (20 mg/kg ip once daily × 6), 191%; with L1210 leukemia (50 mg/kg ip once daily × 6) it was 138%; in the data set on L1210 leukemia (75 mg/kg ip once daily × 6) it was 119%. Also, the “%T/C (average survival time treated/control × 100)” value in the data set on L1210 leukemia (100 mg/kg ip once daily × 6) is on record as 115%. Further, the “% 60 Day Survivors (cures)” value in the data set with L1210 leukemia (10 mg/kg ip once daily × 6) came to 20%; with L1210 leukemia (20 mg/kg ip once daily × 6), 20%; with L1210 leukemia (25 mg/kg ip once daily × 6), 100%; with L1210 leukemia (50 mg/kg ip once daily × 6), 80%; in the data set with L1210 leukemia (75 mg/kg ip once daily × 6), 60%. The “Av. Wt. Change %” value is -1.5% in data set [1] (5 mg/kg ip once daily × 6); -1.4% in data set [1] (10 mg/kg ip once daily × 6); -0.5% in data set [1] (15 mg/kg ip once daily × 6); -3.7% in data set [1] (20 mg/kg ip once daily × 6); -0.5% in data set [1] (25 mg/kg ip once daily × 6); -2.5% in data set [1] (50 mg/kg ip once daily × 6). Further, the entries for the “Av. Wt. Change %” value in data set [1] (75 mg/kg ip once daily × 6) and in data set [1] (100 mg/kg ip once daily × 6) were -1.5% and -4.0%, respectively.

Consider `CCOC(=O)C(C)NC(=O)N(N(CCCl)S(C)(=O)=O)S(C)(=O)=O` (centres unmarked) [Compound VIII, 1,2-Bis(methylsulfonyl)-1-(2-chloroethyl)-2-(1-ethoxycarbonylethyl)aminocarbonylhydrazine], for which the “%T/C (average survival time treated/control × 100)” value with L1210 leukemia (5 mg/kg ip once daily × 6) was determined as 170%; in the data set with L1210 leukemia (10 mg/kg ip once daily × 6), 178%; in the data set on L1210 leukemia (15 mg/kg ip once daily × 6), 185%; with L1210 leukemia (20 mg/kg ip once daily × 6), 227%; in the data set with L1210 leukemia (25 mg/kg ip once daily × 6), 239%; with L1210 leukemia (75 mg/kg ip once daily × 6), 125%. The “%T/C (average survival time treated/control × 100)” value in the data set with L1210 leukemia (100 mg/kg ip once daily × 6) came out at 118%. The “% 60 Day Survivors (cures)” value was 20% in the data set with L1210 leukemia (10 mg/kg ip once daily × 6), 60% in the data set on L1210 leukemia (25 mg/kg ip once daily × 6), 100% in the data set on L1210 leukemia (50 mg/kg ip once daily × 6) and 80% in the data set on L1210 leukemia (75 mg/kg ip once daily × 6). For the same compound, the “Av. Wt. Change %” value in data set [1] (5 mg/kg ip once daily × 6) is on record as -2.0%; in data set [1] (10 mg/kg ip once daily × 6) it was -1.4%; in data set [1] (15 mg/kg ip once daily × 6), -0.5%; in data set [1] (20 mg/kg ip once daily × 6), -1.5%; in data set [1] (25 mg/kg ip once daily × 6), -2.5%; in data set [1] (50 mg/kg ip once daily × 6), -3.3%. For the same compound, the “Av. Wt. Change %” value in data set [1] (75 mg/kg ip once daily × 6) and in data set [1] (100 mg/kg ip once daily × 6) was -2.5% throughout.

With `O=P1(N(CCCl)CCCl)NCCCO1` (centres unmarked) [Cyclophosphamide, cyclophosphamide, reference compound], in the data set on M109 lung carcinoma (setting [2]), the “delay in tumor growth (T-C)” value is reported as 8.8 days and the “maximum %T/C” value came to 143%.

`CO[C@@]12[C@H](COC(N)=O)C3=C(C(=O)C(C)=C(N)C3=O)N1C[C@@H]1N[C@@H]12` [Mitomycin C, mitomycin C, reference compound]: in the data set with M109 lung carcinoma (setting [3]), the “delay in tumor growth (T-C)” value turned out to be 10 days and the “maximum %T/C” value amounted to 103%. Further, in the data set with M109 lung carcinoma (setting [2]), the “delay in tumor growth (T-C)” value is on record as 9.3 days and the “maximum %T/C” value is 134%.
